Patent US6627653B2, “Anticonvulsant derivatives useful for the treatment of depression” (Ortho-McNeil Pharmaceutical, Inc., priority 2000, dated 2003)
Read-outs that look alike come from different tables or passages of the source.

What was measured:
[1] = several rodent models of epilepsy; cited from earlier work
[2] = animal model of kindled epilepsy; cited from earlier work
[3] = Clinical case study, Example 1: topiramate added to existing pharmacotherapy; format: in vivo, human
Protocol: In the first case, the patient was a person who had suffered from depression for 25 years.
Topiramate was prescribed for the patient as add-on therapy to existing treatment of venlafaxine at 225 mg/day and mirtazapine at 30 mg/day. Topiramate treatment was initiated at 25 mg/day, with increased dosage to 150 mg/day. […] After six months, mirtazapine was withdrawn and topiramate daily dosage increased to 200 mg/day.
Following one year, topiramate and venlafaxine were withdrawn because of a surgical procedure. […] The patient was subsequently restarted on topiramate at 300 mg/day.

[4] = adjunctive therapy or monotherapy; cited from earlier work
[5] = Clinical case study, Example 2: topiramate add-on therapy; format: in vivo, human; conditions: for previous pharmacological treatment of patient's depression, outcome: treatment history of the Example 2 patient
Protocol: Initially the patient was started on topiramate add-on therapy at 25 mg/day, with increased dosage to 150 mg/day over the course of one month, in response to the patient's clinical behavior (the patient experienced suicidal ideation). One month later, the topiramate therapy was further increased to 300 mg/day, with the patient also taking 20 mg/day methylphenidate and 150 mg/day venlafaxine.

Compound	block of seizures [1]	block of seizures [2]	clinical evaluation of depression ([3]; after eight months, topiramate 300 mg/day)	clinical evaluation of depression ([3]; after six months, mirtazapine withdrawn, topiramate 200 mg/day)	clinical evaluation of depression ([3]; after two months, topiramate 150 mg/day add-on to venlafaxine 225 mg/day and mirtazapine 30 mg/day)	patient-reported state after restart ([3]; restarted on topiramate 300 mg/day after relapse, following six months of treatment)	efficacy in treating seizures [4]	patient-reported state ([5]; after three month of treatment)	mood state ([5]; at eight months of therapy, venlafaxine 150 mg/day and topiramate 300 mg/day)	clinical rating of depression ([5]; topiramate 300 mg/day with methylphenidate 20 mg/day and venlafaxine 150 mg/day, about two months)	previous pharmacological treatment of patient's depression, outcome [5]
CC1(C)O[C@@H]2[C@@H](CO[C@@]3(COS(N)(=O)=O)OC(C)(C)O[C@@H]23)O1 [topiramate, 2,3:4,5-bis-O-(1-methylethylidene)-β-D-fructopyranose sulfamate]	effectively block seizures	effectively block seizures	very much improved	very much improved	very mild depressive	feeling very well	effective	never felt so well	normothymic	much improved	–
CN(C)CCC=C1c2ccccc2CCc2ccccc21 [amitriptyline]	–	–	–	–	–	–	–	–	–	–	unsuccessful
N[C@@H]1C[C@H]1c1ccccc1 (racemic) [tranylcypromine]	–	–	–	–	–	–	–	–	–	–	unsuccessful
